Target: T1, CNG channel (bovine retinal rod cGMP-gated channel alpha subunit) (Bos taurus, UniProt Q00194)
T1 sequence (Q00194 1-690): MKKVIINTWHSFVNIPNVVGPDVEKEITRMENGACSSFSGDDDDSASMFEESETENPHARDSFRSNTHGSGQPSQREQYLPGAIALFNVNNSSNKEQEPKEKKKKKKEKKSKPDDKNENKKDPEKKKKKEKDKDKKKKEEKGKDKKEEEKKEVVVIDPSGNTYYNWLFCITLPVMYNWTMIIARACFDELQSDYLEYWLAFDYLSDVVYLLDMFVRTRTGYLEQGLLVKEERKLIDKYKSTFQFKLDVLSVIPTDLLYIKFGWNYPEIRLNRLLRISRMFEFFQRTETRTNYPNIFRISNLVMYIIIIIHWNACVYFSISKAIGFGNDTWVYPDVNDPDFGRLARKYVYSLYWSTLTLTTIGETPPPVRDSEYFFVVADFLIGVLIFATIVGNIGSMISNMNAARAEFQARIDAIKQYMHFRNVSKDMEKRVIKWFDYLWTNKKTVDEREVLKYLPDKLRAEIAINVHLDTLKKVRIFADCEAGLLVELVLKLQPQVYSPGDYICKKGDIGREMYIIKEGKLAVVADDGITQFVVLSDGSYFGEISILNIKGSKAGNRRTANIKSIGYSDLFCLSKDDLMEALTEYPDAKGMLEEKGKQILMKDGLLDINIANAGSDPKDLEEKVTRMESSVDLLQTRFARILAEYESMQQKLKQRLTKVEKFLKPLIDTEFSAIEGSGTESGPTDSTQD
Assay: outside-out patch clamp, macroscopic current block
Format: cell-based

| SMILES | IC50 |
| --- | --- |
| NCCCCN [putrescine] | 1400 µM |
| NCCCCNCCCN [spermidine] | 50 µM |
| NCCCNCCCCNCCCN [spermine] | 3.1 µM |
